Activity calls are given as the source filed them.
Legend:
[1] = biological target: T1, Interleukin-1 receptor-associated kinase 4 (Homo sapiens, UniProt Q9NWZ3); experiment: Inhibition of N-terminal GST tagged human recombinant full-length IRAK4 expressed in Sf9 insect cells assessed as reduction in substrate phosphorylation using RP7030 peptide substrate and ATP incubated for 30 mins fluorescence polarization assay
T1 sequence (Q9NWZ3 whole entry): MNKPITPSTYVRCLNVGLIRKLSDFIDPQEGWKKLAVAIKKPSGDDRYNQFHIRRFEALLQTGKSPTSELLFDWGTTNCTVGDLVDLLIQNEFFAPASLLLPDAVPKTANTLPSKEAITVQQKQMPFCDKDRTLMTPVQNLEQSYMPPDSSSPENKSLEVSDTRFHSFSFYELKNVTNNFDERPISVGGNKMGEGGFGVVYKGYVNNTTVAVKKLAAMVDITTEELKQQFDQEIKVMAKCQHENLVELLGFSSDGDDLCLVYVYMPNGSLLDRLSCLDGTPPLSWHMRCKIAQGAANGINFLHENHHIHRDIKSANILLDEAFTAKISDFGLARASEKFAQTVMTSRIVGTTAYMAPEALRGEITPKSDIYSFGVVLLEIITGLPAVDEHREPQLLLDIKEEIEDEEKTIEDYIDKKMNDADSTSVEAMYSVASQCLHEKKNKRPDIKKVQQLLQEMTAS

[2] = biological target: Dual specificity protein kinase CLK4 (Homo sapiens) (UniProt Q9HAZ1); experiment: Inhibition of CLK4 (unknown origin)
[3] = biological target: Receptor-type tyrosine-protein kinase FLT3 (Homo sapiens) (UniProt P36888); experiment: Inhibition of FLT3 (unknown origin)
[4] = biological target: Mitogen-activated protein kinase kinase kinase kinase 4 (Homo sapiens) (UniProt O95819); experiment: Inhibition of MAP4K4 (unknown origin)
[5] = biological target: High affinity nerve growth factor receptor (Homo sapiens) (UniProt P04629); experiment: Inhibition of TRKA (unknown origin)
[6] = biological target: BDNF/NT-3 growth factors receptor (Homo sapiens) (UniProt Q16620); experiment: Inhibition of TRKB (unknown origin)
[7] = biological target: NT-3 growth factor receptor (Homo sapiens) (UniProt Q16288); experiment: Inhibition of TRKC (unknown origin)
Sequence of NT-3 growth factor receptor (Homo sapiens) (Q16288 32-839 limits assumed): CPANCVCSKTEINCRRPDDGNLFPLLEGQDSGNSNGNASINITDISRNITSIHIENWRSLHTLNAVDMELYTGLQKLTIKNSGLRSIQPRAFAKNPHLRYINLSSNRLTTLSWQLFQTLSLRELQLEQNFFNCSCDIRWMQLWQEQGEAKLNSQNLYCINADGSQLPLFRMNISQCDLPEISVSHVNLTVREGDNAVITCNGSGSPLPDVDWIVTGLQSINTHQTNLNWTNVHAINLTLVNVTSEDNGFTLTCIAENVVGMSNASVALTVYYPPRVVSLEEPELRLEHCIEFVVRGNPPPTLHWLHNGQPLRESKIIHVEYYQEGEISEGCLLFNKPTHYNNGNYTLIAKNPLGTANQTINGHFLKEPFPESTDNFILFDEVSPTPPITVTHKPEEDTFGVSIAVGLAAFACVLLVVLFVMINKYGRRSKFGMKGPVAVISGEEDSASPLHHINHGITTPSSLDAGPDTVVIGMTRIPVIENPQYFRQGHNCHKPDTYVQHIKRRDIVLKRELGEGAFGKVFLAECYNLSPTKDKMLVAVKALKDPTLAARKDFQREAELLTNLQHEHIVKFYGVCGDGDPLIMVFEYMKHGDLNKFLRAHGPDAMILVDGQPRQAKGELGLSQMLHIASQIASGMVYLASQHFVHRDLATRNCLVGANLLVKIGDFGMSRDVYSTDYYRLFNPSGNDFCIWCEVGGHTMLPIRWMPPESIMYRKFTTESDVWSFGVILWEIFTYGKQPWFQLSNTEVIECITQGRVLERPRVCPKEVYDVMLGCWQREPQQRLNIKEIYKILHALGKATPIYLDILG

Sequence of BDNF/NT-3 growth factors receptor (Homo sapiens) (Q16620 32-822 limits assumed): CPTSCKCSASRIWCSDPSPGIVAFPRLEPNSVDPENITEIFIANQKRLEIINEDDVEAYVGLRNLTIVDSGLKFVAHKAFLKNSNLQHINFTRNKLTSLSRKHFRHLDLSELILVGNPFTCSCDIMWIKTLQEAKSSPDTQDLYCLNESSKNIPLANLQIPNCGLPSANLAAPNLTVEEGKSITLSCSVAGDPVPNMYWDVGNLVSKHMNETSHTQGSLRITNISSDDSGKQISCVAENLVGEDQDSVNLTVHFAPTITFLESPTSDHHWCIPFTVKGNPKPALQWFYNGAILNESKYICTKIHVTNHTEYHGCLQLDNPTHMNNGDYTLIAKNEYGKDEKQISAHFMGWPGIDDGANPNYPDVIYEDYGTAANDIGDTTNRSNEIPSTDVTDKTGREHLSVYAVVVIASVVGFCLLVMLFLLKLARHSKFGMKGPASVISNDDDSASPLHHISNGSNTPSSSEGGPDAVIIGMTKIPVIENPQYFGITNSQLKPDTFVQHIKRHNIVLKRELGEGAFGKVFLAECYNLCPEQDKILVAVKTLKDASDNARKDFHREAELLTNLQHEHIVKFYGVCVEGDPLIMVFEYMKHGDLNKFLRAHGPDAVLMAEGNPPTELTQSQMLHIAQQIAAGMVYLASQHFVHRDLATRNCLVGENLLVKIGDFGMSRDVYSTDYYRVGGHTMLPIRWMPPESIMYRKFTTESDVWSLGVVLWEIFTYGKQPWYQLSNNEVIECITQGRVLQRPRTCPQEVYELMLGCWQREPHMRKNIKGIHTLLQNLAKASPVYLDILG
Sequence of Mitogen-activated protein kinase kinase kinase kinase 4 (Homo sapiens) (O95819 2-1239 limits assumed): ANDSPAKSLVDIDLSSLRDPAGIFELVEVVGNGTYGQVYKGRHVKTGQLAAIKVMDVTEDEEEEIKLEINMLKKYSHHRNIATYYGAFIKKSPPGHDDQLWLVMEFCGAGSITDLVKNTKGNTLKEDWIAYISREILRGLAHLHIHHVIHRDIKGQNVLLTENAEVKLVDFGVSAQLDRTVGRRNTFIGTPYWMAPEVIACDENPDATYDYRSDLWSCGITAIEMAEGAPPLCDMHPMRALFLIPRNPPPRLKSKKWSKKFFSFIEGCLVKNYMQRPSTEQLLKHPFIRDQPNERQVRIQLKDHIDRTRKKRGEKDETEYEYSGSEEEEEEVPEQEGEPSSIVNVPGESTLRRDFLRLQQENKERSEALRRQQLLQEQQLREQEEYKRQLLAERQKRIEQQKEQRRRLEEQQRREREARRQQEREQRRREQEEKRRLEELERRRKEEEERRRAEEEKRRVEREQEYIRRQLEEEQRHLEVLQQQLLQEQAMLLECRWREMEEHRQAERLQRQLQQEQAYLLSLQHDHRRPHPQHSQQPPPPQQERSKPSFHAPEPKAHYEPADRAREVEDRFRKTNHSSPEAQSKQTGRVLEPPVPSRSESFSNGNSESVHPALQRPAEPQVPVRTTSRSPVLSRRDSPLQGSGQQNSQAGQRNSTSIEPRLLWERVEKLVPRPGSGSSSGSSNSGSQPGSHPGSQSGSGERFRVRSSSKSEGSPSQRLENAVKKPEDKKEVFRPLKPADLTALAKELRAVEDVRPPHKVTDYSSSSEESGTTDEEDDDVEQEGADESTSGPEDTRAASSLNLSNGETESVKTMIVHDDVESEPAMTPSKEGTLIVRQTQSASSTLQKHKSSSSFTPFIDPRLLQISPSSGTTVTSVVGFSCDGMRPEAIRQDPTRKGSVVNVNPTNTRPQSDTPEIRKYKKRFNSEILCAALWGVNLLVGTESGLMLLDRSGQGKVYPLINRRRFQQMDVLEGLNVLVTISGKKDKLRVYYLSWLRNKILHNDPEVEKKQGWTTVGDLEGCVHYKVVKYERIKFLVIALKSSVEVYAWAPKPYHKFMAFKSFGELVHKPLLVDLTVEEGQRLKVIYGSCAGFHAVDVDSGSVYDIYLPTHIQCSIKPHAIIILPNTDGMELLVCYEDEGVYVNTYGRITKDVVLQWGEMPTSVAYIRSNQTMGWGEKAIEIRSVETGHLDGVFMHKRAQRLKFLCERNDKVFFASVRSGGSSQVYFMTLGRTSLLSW
Sequence of High affinity nerve growth factor receptor (Homo sapiens) (P04629 33-796 limits assumed): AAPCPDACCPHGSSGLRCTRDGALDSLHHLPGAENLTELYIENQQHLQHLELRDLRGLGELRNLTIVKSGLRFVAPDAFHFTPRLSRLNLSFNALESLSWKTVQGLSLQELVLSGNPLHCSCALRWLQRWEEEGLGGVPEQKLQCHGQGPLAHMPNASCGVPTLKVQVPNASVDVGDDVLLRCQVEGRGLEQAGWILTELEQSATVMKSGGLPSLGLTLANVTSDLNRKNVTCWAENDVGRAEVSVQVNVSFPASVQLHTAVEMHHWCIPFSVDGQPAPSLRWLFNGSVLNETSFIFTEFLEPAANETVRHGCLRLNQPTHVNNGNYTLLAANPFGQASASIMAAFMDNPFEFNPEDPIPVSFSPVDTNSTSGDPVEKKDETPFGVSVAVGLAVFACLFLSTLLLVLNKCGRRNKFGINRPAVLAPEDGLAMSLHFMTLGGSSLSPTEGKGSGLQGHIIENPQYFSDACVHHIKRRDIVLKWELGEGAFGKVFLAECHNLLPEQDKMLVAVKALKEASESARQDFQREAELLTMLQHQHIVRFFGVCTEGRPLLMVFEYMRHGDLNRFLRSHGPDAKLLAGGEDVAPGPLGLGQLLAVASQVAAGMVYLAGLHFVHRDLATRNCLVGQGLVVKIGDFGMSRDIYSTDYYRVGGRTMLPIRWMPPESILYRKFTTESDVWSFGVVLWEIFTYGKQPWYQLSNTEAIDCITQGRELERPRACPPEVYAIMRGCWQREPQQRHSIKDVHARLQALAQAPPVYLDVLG
Sequence of Dual specificity protein kinase CLK4 (Homo sapiens) (Q9HAZ1 whole entry, looked up): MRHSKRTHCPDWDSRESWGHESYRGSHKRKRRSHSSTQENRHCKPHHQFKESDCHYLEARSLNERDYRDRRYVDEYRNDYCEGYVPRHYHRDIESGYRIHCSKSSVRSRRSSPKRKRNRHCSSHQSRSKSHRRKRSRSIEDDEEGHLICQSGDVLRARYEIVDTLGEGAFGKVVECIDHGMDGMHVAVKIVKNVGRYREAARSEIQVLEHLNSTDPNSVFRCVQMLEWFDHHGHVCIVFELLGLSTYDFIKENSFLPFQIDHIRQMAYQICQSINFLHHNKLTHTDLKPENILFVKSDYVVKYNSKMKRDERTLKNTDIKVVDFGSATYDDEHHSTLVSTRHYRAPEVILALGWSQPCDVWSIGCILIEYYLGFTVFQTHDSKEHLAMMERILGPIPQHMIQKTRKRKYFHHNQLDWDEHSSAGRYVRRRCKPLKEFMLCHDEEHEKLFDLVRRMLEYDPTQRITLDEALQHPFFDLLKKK
Sequence of Receptor-type tyrosine-protein kinase FLT3 (Homo sapiens) (P36888 whole entry): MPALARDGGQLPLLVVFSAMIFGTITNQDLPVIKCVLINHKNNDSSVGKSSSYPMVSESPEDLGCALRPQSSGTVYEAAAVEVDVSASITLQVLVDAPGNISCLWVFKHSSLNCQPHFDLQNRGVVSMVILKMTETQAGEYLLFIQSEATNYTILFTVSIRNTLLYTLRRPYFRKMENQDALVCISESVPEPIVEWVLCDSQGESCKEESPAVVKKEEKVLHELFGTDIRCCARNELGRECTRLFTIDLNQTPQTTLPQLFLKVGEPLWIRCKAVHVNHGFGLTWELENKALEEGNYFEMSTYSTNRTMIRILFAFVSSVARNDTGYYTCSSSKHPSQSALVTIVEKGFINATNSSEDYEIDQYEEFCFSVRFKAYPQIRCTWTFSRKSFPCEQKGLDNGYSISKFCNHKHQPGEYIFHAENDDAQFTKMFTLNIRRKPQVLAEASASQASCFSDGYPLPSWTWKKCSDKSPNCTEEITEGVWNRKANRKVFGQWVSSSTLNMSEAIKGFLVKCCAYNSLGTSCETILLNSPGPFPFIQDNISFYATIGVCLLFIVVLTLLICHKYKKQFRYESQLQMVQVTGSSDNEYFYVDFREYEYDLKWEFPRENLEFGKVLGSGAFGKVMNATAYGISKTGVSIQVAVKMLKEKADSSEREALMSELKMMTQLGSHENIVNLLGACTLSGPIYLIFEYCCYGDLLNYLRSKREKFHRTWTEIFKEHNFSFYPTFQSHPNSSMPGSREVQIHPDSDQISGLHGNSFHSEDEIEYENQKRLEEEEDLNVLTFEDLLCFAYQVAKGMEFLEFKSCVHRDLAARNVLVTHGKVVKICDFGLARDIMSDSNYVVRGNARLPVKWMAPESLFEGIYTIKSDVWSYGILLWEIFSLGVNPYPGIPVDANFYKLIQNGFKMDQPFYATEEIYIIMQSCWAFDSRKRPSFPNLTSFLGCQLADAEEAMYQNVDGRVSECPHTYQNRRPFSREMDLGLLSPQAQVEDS

OC[C@H]1C[C@@H](Nc2nc(NC3CCCCC3)ncc2-c2nc3ccccc3s2)[C@H](O)[C@@H]1O
active: inhibition [2] | inhibition [3] | inhibition [4] | inhibition [5] | inhibition [6] | inhibition [7]
3010 nM: IC50 [1]

CCCNc1ncc(-c2nc3ccccc3s2)c(N[C@@H]2C[C@H](CO)[C@@H](O)[C@H]2O)n1
active: inhibition [2] | inhibition [3] | inhibition [4] | inhibition [5] | inhibition [6] | inhibition [7]
1190 nM: IC50 [1]

Nc1ncc(-c2cnc3ccccn23)c(N[C@@H]2C[C@H](CO)[C@@H](O)[C@H]2O)n1
1140 nM: IC50 [1]
active: inhibition [2] | inhibition [3] | inhibition [4] | inhibition [5] | inhibition [6] | inhibition [7]

Nc1ncc(-c2nc3ccccc3s2)c(N[C@@H]2C[C@H](CO)[C@@H](O)[C@H]2O)n1
240 nM: IC50 [1]
active: inhibition [2] | inhibition [3] | inhibition [4] | inhibition [5] | inhibition [6] | inhibition [7]

Nc1ncc(-c2nc3cccnc3s2)c(N[C@@H]2C[C@H](CO)[C@@H](O)[C@H]2O)n1
530 nM: IC50 [1]
active: inhibition [2] | inhibition [3] | inhibition [4] | inhibition [5] | inhibition [6] | inhibition [7]

Cc1nc(N)nc(N[C@@H]2C[C@H](CO)[C@@H](O)[C@H]2O)c1-c1nc2ccccc2s1
1060 nM: IC50 [1]
active: inhibition [2] | inhibition [3] | inhibition [4] | inhibition [5] | inhibition [6] | inhibition [7]

Cc1nc(NCC2CC2)nc(N[C@@H]2C[C@H](CO)[C@@H](O)[C@H]2O)c1-c1nc2ccccc2s1
> 20000 nM: IC50 [1]
active: inhibition [2] | inhibition [3] | inhibition [4] | inhibition [5] | inhibition [6] | inhibition [7]

Nc1ncc(-c2nc3ccccc3o2)c(N[C@@H]2C[C@H](CO)[C@@H](O)[C@H]2O)n1
active: inhibition [2] | inhibition [3] | inhibition [4] | inhibition [5] | inhibition [6] | inhibition [7]

Nc1ncc(-c2ncc(-c3ccccc3)s2)c(N[C@@H]2C[C@H](CO)[C@@H](O)[C@H]2O)n1
active: inhibition [2] | inhibition [3] | inhibition [4] | inhibition [5] | inhibition [6] | inhibition [7]
> 20000 nM: IC50 [1]

Cc1cc(Nc2ncc(-c3nc4ccccc4s3)c(N[C@@H]3C[C@H](CO)[C@@H](O)[C@H]3O)n2)cc(C)n1
active: inhibition [2] | inhibition [3] | inhibition [4] | inhibition [5] | inhibition [6] | inhibition [7]
1000 nM: IC50 [1]

Nc1ncc(-c2ccc3ccccc3n2)c(N[C@@H]2C[C@H](CO)[C@@H](O)[C@H]2O)n1
active: inhibition [2] | inhibition [3] | inhibition [4] | inhibition [5] | inhibition [6] | inhibition [7]

Cc1cc(Nc2ncc(-c3nc4ccccc4s3)c(N[C@@H]3C[C@H](CO)[C@@H](O)[C@H]3O)n2)ccn1
active: inhibition [2] | inhibition [3] | inhibition [4] | inhibition [5] | inhibition [6] | inhibition [7]
1000 nM: IC50 [1]

Cn1c(-c2cnc(N)nc2N[C@@H]2C[C@H](CO)[C@@H](O)[C@H]2O)nc2ccccc21
active: inhibition [2] | inhibition [3] | inhibition [4] | inhibition [5] | inhibition [6] | inhibition [7]
> 20000 nM: IC50 [1]

N#Cc1nc(N)nc(N[C@@H]2C[C@H](CO)[C@@H](O)[C@H]2O)c1-c1nc2ccccc2s1
active: inhibition [2] | inhibition [3] | inhibition [4] | inhibition [5] | inhibition [6] | inhibition [7]
> 20000 nM: IC50 [1]

Nc1ncc(-c2nc3ccncc3s2)c(N[C@@H]2C[C@H](CO)[C@@H](O)[C@H]2O)n1
active: inhibition [2] | inhibition [3] | inhibition [4] | inhibition [5] | inhibition [6] | inhibition [7]

Nc1ncc(-c2nccs2)c(N[C@@H]2C[C@H](CO)[C@@H](O)[C@H]2O)n1
active: inhibition [2] | inhibition [3] | inhibition [4] | inhibition [5] | inhibition [6] | inhibition [7]
4700 nM: IC50 [1]

OC[C@H]1C[C@@H](Nc2nc(NC3CCOCC3)ncc2-c2nc3ccccc3s2)[C@H](O)[C@@H]1O
active: inhibition [2] | inhibition [3] | inhibition [4] | inhibition [5] | inhibition [6] | inhibition [7]
1080 nM: IC50 [1]

OC[C@H]1C[C@@H](Nc2nc(Nc3ccccc3)ncc2-c2nc3ccccc3s2)[C@H](O)[C@@H]1O
active: inhibition [2] | inhibition [3] | inhibition [4] | inhibition [5] | inhibition [6] | inhibition [7]
42000 nM: IC50 [1]

Nc1nc(N)c(-c2nc3ccccc3s2)c(N[C@@H]2C[C@H](CO)[C@@H](O)[C@H]2O)n1
5190 nM: IC50 [1]
active: inhibition [2] | inhibition [3] | inhibition [4] | inhibition [5] | inhibition [6] | inhibition [7]

OC[C@H]1C[C@@H](Nc2nc(NCC3CC3)ncc2-c2nc3ccccc3s2)[C@H](O)[C@@H]1O
333 nM: IC50 [1]
active: inhibition [2] | inhibition [3] | inhibition [4] | inhibition [5] | inhibition [6] | inhibition [7]

OC[C@H]1C[C@@H](Nc2nc(Nc3cncnc3)ncc2-c2nc3ccccc3s2)[C@H](O)[C@@H]1O
6000 nM: IC50 [1]
active: inhibition [2] | inhibition [3] | inhibition [4] | inhibition [5] | inhibition [6] | inhibition [7]

CCCNc1nc(C)c(-c2nc3ccccc3s2)c(N[C@@H]2CC[C@@H](O)[C@H]2O)n1 (racemic)
> 20000 nM: IC50 [1]
active: inhibition [2] | inhibition [3] | inhibition [4] | inhibition [5] | inhibition [6] | inhibition [7]

Nc1ncc(-c2nc(-c3ccccc3)cs2)c(N[C@@H]2C[C@H](CO)[C@@H](O)[C@H]2O)n1
active: inhibition [2] | inhibition [3] | inhibition [4] | inhibition [5] | inhibition [6] | inhibition [7]

Nc1ncc(-c2nc3cnccc3s2)c(N[C@@H]2C[C@H](CO)[C@@H](O)[C@H]2O)n1
active: inhibition [2] | inhibition [3] | inhibition [4] | inhibition [5] | inhibition [6] | inhibition [7]

CCCNc1nc(C)c(-c2nc3ccccc3s2)c(N2CCOCC2)n1
> 20000 nM: IC50 [1]
active: inhibition [2] | inhibition [3] | inhibition [4] | inhibition [5] | inhibition [6] | inhibition [7]

Nc1ncc(-c2ccccc2)c(N[C@@H]2C[C@H](CO)[C@@H](O)[C@H]2O)n1
active: inhibition [2] | inhibition [3] | inhibition [4] | inhibition [5] | inhibition [6] | inhibition [7]
> 20000 nM: IC50 [1]

CCCNc1nc(C)c(-c2nc3ccccc3s2)c(N[C@H]2CC[C@@H](CO)C2)n1 (racemic)
active: inhibition [2] | inhibition [3] | inhibition [4] | inhibition [5] | inhibition [6] | inhibition [7]
> 20000 nM: IC50 [1]

Nc1ncc(-c2ccccn2)c(N[C@@H]2C[C@H](CO)[C@@H](O)[C@H]2O)n1
830 nM: IC50 [1]
active: inhibition [2] | inhibition [3] | inhibition [4] | inhibition [5] | inhibition [6] | inhibition [7]

Cc1cc(Nc2ncc(-c3nc4ccncc4s3)c(N[C@@H]3C[C@H](CO)[C@@H](O)[C@H]3O)n2)cc(C)n1
active: inhibition [2] | inhibition [3] | inhibition [4] | inhibition [5] | inhibition [6] | inhibition [7]
300 nM: IC50 [1]

Reference: ChEMBL document CHEMBL3400143, “Discovery and hit-to-lead optimization of 2,6-diaminopyrimidine inhibitors of interleukin-1 receptor-associated kinase 4” (Bioorg Med Chem Lett, 2015)
